Data taken from patent publication US5744600A, “Phosphonomethoxy carbocyclic nucleosides and nucleotides” (Institute of Organic Chemistry and Biochemistry of the …, priority 1994, dated 1998).
Values after ≈ are worked out from the molar mass of the structure shown. Like-named read-outs stand apart in the source and are kept apart here.

Columns and labels:
[1] = system: Murine leukemia virus (MuLV); assay: MuLV UV-XC plaque assay in SC-1 cells; assay type: cell-based; settings: SC1, Table II, racemic series, read-out: MuLV in vitro antiviral activity (IC50)
Protocol: The compounds were evaluated for antiviral activity against Murine leukemia virus (MuLV) strains using the UV-XC plaque assay (Rowe, et. al., Virology, 42:1136, 1970).
The MuLV strains were grown in fetal mouse cells, (SC-1) and used for antiviral tests using the UV-XC plaque assay. Briefly, SC-1 cells are grown as monolayers in 4-well tissue culture plates and inoculated with approximately 50-100 plaque forming units of MuLV in 0.5 ml of 5% EMEM containing 20 μg/ml DEAE/Dextran. After 1 hr. adsorption, the inoculum is removed and 5 ml of 5% EMEM containing three-fold dilutions of the appropriate drug are added. Five days later, the cultures are UV-irradiated with an ultraviolet lamp and rat XC sarcoma cells are added to the cultures. Three to four days after UV-irradiation, the cell cultures are stained with Giemsa stain and the plaques are counted. Antiviral activity is expressed in terms of the reduction in the mean number of UV-XC plaques counted in the drug treated, virus-infected cultures compared with mean number of plaques counted in untreated, virus-infected control cultures. IC50 values are calculated by determining the concentration of compound necessary to reduce the number of plaques by 50% compared to those in the virus control cultures.

[2] = system: human cytomegalovirus (HCMV) [AD169 strain]; assay: HCMV plaque reduction assay in MRC-5 cells; assay type: cell-based; settings: Human betaherpesvirus 5, AD169, MRC5, Table II, racemic series, 48 hour incubation, read-out: HCMV in vitro antiviral activity (IC50)
Protocol: (§1) The compounds were evaluated for antiviral activity in vitro by a standard plaque reduction assay. Experiments were conducted with vero cells (African Green Monkey Kidney cells) infected with herpes simplex virus Type 1 (HSV-1) [BW^s strain, C. D. Sibrack, et al., Infect. Disc., 1982, 146, 673] and herpes simplex virus Type 2 (HSV-2) [G strain, obtained from American Tissue Culture Collection, Rockville, Md.] and with MRC-5 cells (human embryonic lung (diploid) cells) infected with human cytomegalovirus (HCMV) [AD169 strain, obtained from American Tissue Culture Collection, Rockville, Md].
(§2) Briefly, confluent cell monolayers in 24-well plates were infected with 3-50 plaque-forming units of virus in 100 μl of phosphate-buffered saline. After a 1 hour adsorption period, residual inoculum was replaced with 1 mL of the appropriate dilution of the test compound which had been freshly prepared in Eagle's minimal essential medium ("EMEM") containing 10% fetal bovine serum. After a 48 hour incubation period at 37° C. in a 5% CO2 atmosphere, cell monolayers were fixed and stained with Carbol fuchsin and plaques were counted. The antiviral potency of the compound was determined by IC50, the inhibitory concentration necessary to reduce the number of plaques by 50% of those in the virus control cultures.

[3] = system: herpes simplex virus Type 1 (HSV-1) [BW^s strain]; assay: HSV-1 plaque reduction assay in vero cells; assay type: cell-based; settings: Human alphaherpesvirus 1, Table II, racemic series, 48 hour incubation, read-out: HSV-1 in vitro antiviral activity (IC50)
Protocol: (§3) The antiviral activity of compounds of the invention, against both herpes viruses and human immunodeficiency virus (HIV), are presented in Table II. In Table II, the numbers in parenthesis in the columns reporting HIV activity represent the TD50, that is, the dosage at which toxic effects are observed in 50% of the population of cells tested.
as §1, §2

[4] = system: herpes simplex virus Type 2 (HSV-2) [G strain]; assay: HSV-2 plaque reduction assay in vero cells; assay type: cell-based; settings: Human alphaherpesvirus 2, Table II, racemic series, 48 hour incubation, read-out: HSV-2 in vitro antiviral activity (IC50)
Protocol: as §3, §1, §2

[5] = system: HCMV (human cytomegalovirus, strain AD 169); assay: HCMV plaque inhibition assay in WI-38 cells; assay type: cell-based; settings: 5-7 days
Protocol: (§4) Additional assays were performed in cell culture systems to determine the concentrations of compounds that are effective in preventing several kinds of viral infections. In Tables III and IV, the anti-HIV results using CEM cells were obtained using the same protocol described earlier. Figures in parenthesis represent the observed TD50 in the HIV screens indicated. Abbreviations:
(§5) HSV-1 (herpes simplex virus type 1, strain Schooler), HSV-2 (herpes simplex virus type 2, strain 186), VZV (varicella zoster virus, strain ELLEN), HCMV (human cytomegalovirus, strain AD 169 HIV (human immunodeficiency virus, strain HTLV-IIIB).
(§6) Virus was adsorbed to WI-38 cell culture monolayers in 6 well culture plates (Costar, Cambridge, Mass.) for 1 hour prior to addition of maintenance medium containing duplicate dilutions of the test compound. Inhibition of plaque development was evaluated on fixed and stained monolayers after 4 days incubation at 37° C. for HSV-1 and HSV-2, and after 5-7 days incubation at 37° C. for HCMV and VZV. ID50 values were determined from the drug concentration which conferred at least a 50% plaque reduction compared to virus controls.

[6] = system: VZV (varicella zoster virus, strain ELLEN); assay: VZV plaque inhibition assay in WI-38 cells; assay type: cell-based; settings: 5-7 days
Protocol: as §4, §5, §6

[7] = system: HSV-1 (herpes simplex virus type 1, strain Schooler); assay: HSV-1 plaque inhibition assay in WI-38 cells; assay type: cell-based; settings: Human alphaherpesvirus 1, 96 h, 4 days
Protocol: as §4, §5, §6

[8] = system: HSV-2 (herpes simplex virus type 2, strain 186); assay: HSV-2 plaque inhibition assay in WI-38 cells; assay type: cell-based; settings: Human alphaherpesvirus 2, 96 h, 4 days
Protocol: as §4, §5, §6

[9] = system: murine leukemia L1210; settings: in vitro; Herdewijn, et al., J. Med. Chem. (1985); cited from earlier work
[10] = Herdewijn, et al., J. Med. Chem. (1985); cited from earlier work
[11] = system: phytopathogenic bacteria and fungi; settings: Kusaka, et al., J. Antibiotics, (1968); cited from earlier work
[12] = Herdewijn, et al., J. Med. Chem. (1985); cited from earlier work; remark: listed apart in the source
[13] = Human betaherpesvirus 5, Table III, racemic series, read-out: HCMV in vitro antiviral activity (ID50)
[14] = Human alphaherpesvirus 3, Table III, racemic series, read-out: VZV in vitro antiviral activity (ID50)
[15] = Table III, racemic series, read-out: HSV-1 in vitro antiviral activity (ID50)
[16] = Table III, racemic series, read-out: HSV-2 in vitro antiviral activity (ID50)

Row | Structure (SMILES) | IC50 [1] [µg/mL] | IC50 [3] [µg/mL] | IC50 [4] [µg/mL] | IC50 [2] [µg/mL] | further results
1 | Nc1nc2c(ncn2C2CC(OCP(=O)(O)O)C(O)C2O)c(=O)[nH]1 (centres unmarked) | > 100 | > 100 | > 100 | 4.5 (≈ 12.5 µM) | –
2 | Nc1nc2c(ncn2C2CC(OCP(=O)(O)O)C(O)C2F)c(=O)[nH]1 (centres unmarked) | – | – | 22 (≈ 60.6 µM) | 0.36 (≈ 0.991 µM) | –
3 | Cc1cn(C2C=CC(OCP(=O)(O)O)C2)c(=O)[nH]c1=O (centres unmarked) | – | > 140 | > 134 | – | –
4 | Nc1nc2c(ncn2C2CC(OCP(=O)(O)O)CC2F)c(=O)[nH]1 (centres unmarked) | – | – | – | – | IC50 [5, 13]: 10 to 25 µg/mL (≈ 28.8 to 72 µM); IC50 [6, 14]: 10 to 33 µg/mL (≈ 28.8 to 95 µM); IC50 [7, 15]: 10 to 25 µg/mL (≈ 28.8 to 72 µM); IC50 [8, 16]: 10 to 25 µg/mL (≈ 28.8 to 72 µM)
5 | Nc1ncnc2c1ncn2[C@@H]1C[C@H](CO)[C@@H](O)[C@H]1O [aristeromycin] | – | – | – | – | activity against murine leukemia L1210 [9]: active; cytotoxicity [10]: cytotoxic; growth inhibitory activity against phytopathogenic bacteria and fungi [11]: growth inhibitory activity; antiviral activity [12]: has antiviral activity
6 | Nc1nc2c(ncn2C2C=CC(OCP(=O)(O)O)C2)c(=O)[nH]1 (centres unmarked) [drawing 30] | – | – | – | – | IC50 [5, 13]: > 100 µg/mL; IC50 [6, 14]: 12 to 121 µg/mL (≈ 36.7 to 370 µM); IC50 [7, 15]: > 72 µg/mL; IC50 [8, 16]: > 72 µg/mL
7 | Nc1ncnc2c1ncn2C1C=CC(OCP(=O)(O)O)C1 (centres unmarked) [drawing 33] | – | – | – | – | IC50 [5, 13]: > 100 µg/mL; IC50 [6, 14]: > 100 µg/mL; IC50 [7, 15]: > 100 µg/mL; IC50 [8, 16]: > 100 µg/mL
8 | Nc1ncnc2c1ncn2C1CC(OCP(=O)(O)O)C(O)C1F (centres unmarked) [drawing 67] | – | – | – | – | IC50 ([5]; Human betaherpesvirus 5, Table IV, enantiomeric series (1R, 4S), read-out: HCMV in vitro antiviral data (ID50)): > 100 µg/mL; IC50 ([6]; Human alphaherpesvirus 3, Table IV, enantiomeric series (1R, 4S), read-out: VZV in vitro antiviral data (ID50)): 5 to 10 µg/mL (≈ 14.4 to 28.8 µM); IC50 ([7]; Table IV, enantiomeric series (1R, 4S), read-out: HSV-1 in vitro antiviral data (ID50)): 10 to 25 µg/mL (≈ 28.8 to 72 µM); IC50 ([8]; Table IV, enantiomeric series (1R, 4S), read-out: HSV-2 in vitro antiviral data (ID50)): 10 to 25 µg/mL (≈ 28.8 to 72 µM)

Second part, led by results:

Row | IC50 [1] [µg/mL] | IC50 [3] [µg/mL] | IC50 [4] [µg/mL] | Structure (SMILES) | IC50 [2] [µg/mL] | further results
9 | > 100 | – | > 100 | Nc1ncnc2c1ncn2C1CC(OCP(=O)(O)O)C(O)C1O (centres unmarked) | > 100 | –
10 | 5.1 (≈ 15.6 µM) | 13.5 (≈ 41.3 µM) | > 50 | Nc1nc2c(ncn2C2C=CC(OCP(=O)(O)O)C2)c(=O)[nH]1 (centres unmarked) [drawing 15] | > 100 | –
11 | 0.84 (≈ 2.7 µM) | > 116 | > 82 | Nc1ncnc2c1ncn2C1C=CC(OCP(=O)(O)O)C1 (centres unmarked) [drawing 24] | > 100 | –
12 | – | – | > 100 | Nc1ncnc2c1ncn2C1CC(OCP(=O)(O)O)C(O)C1F (centres unmarked) [drawing 27] | 85 (≈ 245 µM) | –
